Among the data in paper PMC2099433, “The binding site for neohesperidin dihydrochalcone at the human sweet taste receptor” (BMC Structural Biology, 2007) are EC50 and Emax values, retold here.

Positions count from the first letter of the chain named. Where a SMILES comes first, the peptide text is derived from it.

Assay [1] has as its target T1, hTAS1R2 + hTAS1R3 T724L^5.37 (Homo sapiens, UniProt Q7RTX0+Q8TE23, T724L).
T1 construct: expressed in transfected cells; host or cells: HEK293T cells stably expressing G16Gust44
T1 sequence (Q7RTX0 21-852 T724L): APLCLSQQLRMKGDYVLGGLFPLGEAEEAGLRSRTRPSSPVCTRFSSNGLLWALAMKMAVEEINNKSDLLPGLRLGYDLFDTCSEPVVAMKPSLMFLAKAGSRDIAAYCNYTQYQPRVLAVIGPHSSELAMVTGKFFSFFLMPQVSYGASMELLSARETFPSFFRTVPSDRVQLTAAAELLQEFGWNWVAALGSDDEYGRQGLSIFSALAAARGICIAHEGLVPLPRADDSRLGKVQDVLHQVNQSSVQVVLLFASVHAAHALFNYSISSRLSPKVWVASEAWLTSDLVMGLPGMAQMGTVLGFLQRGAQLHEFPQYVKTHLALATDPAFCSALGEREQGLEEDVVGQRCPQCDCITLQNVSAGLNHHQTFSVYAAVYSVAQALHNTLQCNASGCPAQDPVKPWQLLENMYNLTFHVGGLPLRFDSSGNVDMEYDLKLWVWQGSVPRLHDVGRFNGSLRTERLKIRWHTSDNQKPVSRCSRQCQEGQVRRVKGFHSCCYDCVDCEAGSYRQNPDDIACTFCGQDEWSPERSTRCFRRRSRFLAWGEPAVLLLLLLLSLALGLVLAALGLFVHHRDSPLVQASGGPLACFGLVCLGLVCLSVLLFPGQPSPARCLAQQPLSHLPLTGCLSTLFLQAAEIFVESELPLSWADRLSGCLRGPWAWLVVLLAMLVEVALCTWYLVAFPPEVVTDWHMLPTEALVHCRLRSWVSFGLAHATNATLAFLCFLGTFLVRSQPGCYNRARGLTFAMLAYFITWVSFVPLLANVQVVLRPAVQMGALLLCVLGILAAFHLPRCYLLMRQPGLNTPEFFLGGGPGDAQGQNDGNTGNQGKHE
T1 sequence (Q8TE23 20-839): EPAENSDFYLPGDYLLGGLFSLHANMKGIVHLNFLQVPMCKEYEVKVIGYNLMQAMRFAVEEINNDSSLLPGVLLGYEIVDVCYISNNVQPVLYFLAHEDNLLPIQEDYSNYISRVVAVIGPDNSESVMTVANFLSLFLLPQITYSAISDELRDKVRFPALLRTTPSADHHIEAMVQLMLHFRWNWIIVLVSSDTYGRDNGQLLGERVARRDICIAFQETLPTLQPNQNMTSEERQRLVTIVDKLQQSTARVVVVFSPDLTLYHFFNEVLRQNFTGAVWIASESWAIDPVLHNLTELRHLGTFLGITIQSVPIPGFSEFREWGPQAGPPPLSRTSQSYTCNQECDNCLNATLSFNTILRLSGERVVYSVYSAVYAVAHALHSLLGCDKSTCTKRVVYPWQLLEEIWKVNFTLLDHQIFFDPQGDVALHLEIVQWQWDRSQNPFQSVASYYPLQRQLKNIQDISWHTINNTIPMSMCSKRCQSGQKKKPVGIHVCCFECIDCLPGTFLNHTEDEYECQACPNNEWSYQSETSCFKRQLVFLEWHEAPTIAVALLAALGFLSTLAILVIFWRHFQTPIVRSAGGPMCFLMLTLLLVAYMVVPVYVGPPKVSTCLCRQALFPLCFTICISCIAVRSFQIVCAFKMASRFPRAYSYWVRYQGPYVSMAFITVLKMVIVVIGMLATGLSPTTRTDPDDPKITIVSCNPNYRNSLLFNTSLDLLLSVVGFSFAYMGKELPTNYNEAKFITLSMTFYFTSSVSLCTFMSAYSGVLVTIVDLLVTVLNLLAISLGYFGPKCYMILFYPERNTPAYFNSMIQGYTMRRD
Briefly: Calcium response (FLIPR), hTAS1R3 mutant coexpressed with hTAS1R2. The format is cell-based. Particulars: variant T724L^5.37; for Emax: read-out: maximal signal (% of wt). A digest of the protocol: (§1)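 Read-out: FLIPR calcium signal as ΔF/F = (F-F0)/F0, corrected for mock-transfected cells. Cells were HEK293T stably carrying G16Gust44, transiently transfected with HSV-tagged receptor cDNAs and dye-loaded with Fluo4-AM 24 h post transfection.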

The target of assay [2] is T2, hTAS1R2 + hTAS1R3 S640A^3.32 (Homo sapiens, UniProt Q7RTX0+Q8TE23, S640A).
T2 construct: expressed in transfected cells; host or cells: HEK293T cells stably expressing G16Gust44
T2 sequence (Q8TE23 20-839): T1 sequence (Q8TE23 20-839)
T2 sequence (Q7RTX0 21-852 S640A): T1 sequence (Q7RTX0 21-852 T724L) with S620A, L704T
The description is as above. The settings on record: variant S640A^3.32; for Emax: read-out: maximal signal (% of wt). Format: cell-based. A digest of the protocol:
as §1

For orientation: EC50 means the midpoint of the concentration-response curve. As for `COc1ccc(CCC(=O)c2c(O)cc(O[C@@H]3O[C@H](CO)[C@@H](O)[C@H](O)[C@H]3O[C@@H]3O[C@@H](C)[C@H](O)[C@@H](O)[C@H]3O)cc2O)cc1O` [NHDC, neohesperidin dihydrochalcone], in assay [1], the EC50 is 500 ± 300 µM and the Emax worked out at 58 ± 60%. In addition, in assay [2], the EC50 is 800 ± 200 µM and the Emax was determined as 63 ± 18%.
`COC(=O)[C@H](Cc1ccccc1)NC(=O)[C@@H](N)CC(=O)O` [aspartame] (HELM PEPTIDE1{D.F.[CO[*:1]]}$$$$V2.0): the EC50 amounted to 1500 ± 200 µM in assay [1] and 1400 ± 500 µM in assay [2]. The Emax in assay [1] was 69 ± 2%; in assay [2] it was 61 ± 40%.
